According to article PMC10674657, “Quinazolin-4-one/3-cyanopyridin-2-one Hybrids as Dual Inhibitors of EGFR and BRAF^V600E: Design, Synthesis, and Antiproliferative Activity” (Pharmaceuticals, 2023):

Columns and labels:
MCF-10A cells = assay: Cell viability (cytotoxicity) MTT assay in non-tumorigenic MCF-10A cells; assay type: cell-based, human; settings: 50 µM, 4 days
[1] = test system: Panc-1 human pancreatic cancer cell line; assay: Antiproliferative assay, Panc-1; settings: read-out: Antiproliferative Activity IC50 ± SEM, Panc-1; mean ± SEM
Method: (§1) For a rigorous assessment, the widely accepted MTT assay [63, 64] was employed. Using Doxorubicin, a well-established drug, as the reference standard ensures a benchmark for the synthesized compounds, allowing a contextual understanding of their efficacy.
(§2) The MTT assay [63, 64] was employed for this assessment, with Doxorubicin as the reference drug.
(§3) 24h followed by the addition of synthesized compounds (in 200 μL medium to yield a final concentration of 0.1% (v/v) dimethyl sulfoxide) into individual wells of the plates. Four wells were designated to a single compound. The plates were allowed to incubate at 37°C for 96 h. After wards, the medium was aspirated and 3-[4,5-dimethylthiazol-2-yl]-2,5-diphenyltetrazolium bromide (MTT) (0.4 mg/mL) in medium was added to each well and subsequently incubated for 3 h. The medium was aspirated and 150 μL dimethyl sulfoxide (DMSO) was added to each well.
(§4) The plates were vortexed followed by the measurement of absorbance at 540 nm on a microplate

[2] = test system: MCF-7 human breast adenocarcinoma cell line; assay: Antiproliferative assay, MCF-7; settings: read-out: Antiproliferative Activity IC50 ± SEM, MCF-7; mean ± SEM
Method: as §1, §2, §3, §4

[3] = test system: HT-29 human colon cancer cell line; assay: Antiproliferative assay, HT-29; settings: read-out: Antiproliferative Activity IC50 ± SEM, HT-29; mean ± SEM
Method: as §1, §2, §3, §4

[4] = test system: four cancer cell lines (A-549, MCF-7, Panc-1, HT-29); assay: Antiproliferative assay, average over four cancer cell lines (GI50); settings: read-out: Average IC50 (GI50); average of IC50 against four cancer cell lines
Method: as §1, §2, §3, §4

[5] = test system: A-549 human lung carcinoma cell line; assay: Antiproliferative assay, A-549; settings: read-out: Antiproliferative Activity IC50 ± SEM, A-549; mean ± SEM
Method: as §1, §2, §3, §4

IC50 [1]: 2.1 ± 0.1 µM
IC50 [2]: 1.8 ± 0.1 µM
IC50 [3]: 2.1 ± 0.1 µM
IC50 [4]: 2 µM
IC50 [5]: 2 ± 0.1 µM
Substance: 2-((3-Allyl-4-oxo-3,4-dihydroquinazolin-2-yl)thio)-N-(4-(4-(4-bromophenyl)-4-cyano-6-oxo-1,6-dihydropyridin-2-yl)phenyl)acetamide [Compound 20]
Cell Viability % (MCF-10A cells): 91%
